Test results: US20150315188A1, “COMPOUNDS AND METHODS FOR TREATMENT OF HYPERTENSION” (MEDIVATION TECHNOLOGIES, INC., priority 2012, published 2015)

These compounds were tested against T1, Human adrenergic α2A receptor (Homo sapiens, UniProt P08913) (assay: β-Arrestin GPCR functional assay, adrenergic α2A (Protocol B)). Details: β-arrestin, antagonist vs nor-epinephrine EC80.
T1 sequence (P08913 1-465): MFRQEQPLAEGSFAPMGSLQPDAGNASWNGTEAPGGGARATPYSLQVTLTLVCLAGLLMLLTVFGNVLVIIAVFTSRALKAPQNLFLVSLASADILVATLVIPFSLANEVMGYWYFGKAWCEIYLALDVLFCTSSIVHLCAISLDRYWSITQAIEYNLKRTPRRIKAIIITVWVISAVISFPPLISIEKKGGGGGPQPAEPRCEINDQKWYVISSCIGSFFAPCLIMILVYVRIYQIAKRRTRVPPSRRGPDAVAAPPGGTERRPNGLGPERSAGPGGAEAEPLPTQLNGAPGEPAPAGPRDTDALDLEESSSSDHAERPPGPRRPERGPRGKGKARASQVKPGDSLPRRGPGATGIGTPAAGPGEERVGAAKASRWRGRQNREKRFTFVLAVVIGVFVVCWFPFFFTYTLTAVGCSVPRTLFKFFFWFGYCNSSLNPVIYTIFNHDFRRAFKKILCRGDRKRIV
Format: cell-based
Procedure, shortened: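 PathHunter CHO cells overexpressing human α2A receptor were preincubated with compounds (1% DMSO final) for 30 min at 37 °C, then stimulated 90 min with norepinephrine at EC80 (270 nM). β-Arrestin recruitment read by chemiluminescence after 60 min detection; reported as % inhibition or IC50.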

Row | Compound | IC50 [nM]
1 | Cc1ccc2c(c1)c1c(n2CC(OCC2CCC2)c2ccncc2)CCN2CCCC12 (single isomer, unassigned) [138a] | 413
2 | CCOC(Cn1c2c(c3cc(C)ccc31)CN(C)CC2)c1ccncc1 (single isomer, unassigned) [43b] | 7340
3 | Cc1ccc2c(c1)c1c(n2CC(OC(=O)N2CCCC2)c2ccncc2)CCN(C)C1 (single isomer, unassigned) [4b] | 6080
4 | CC(O)(Cn1c2c(c3cc(F)ccc31)C1CCCN1CC2)c1ccncc1 (single isomer, unassigned) [31a] | 11400
5 | Cc1ccc2c(c1)c1c(n2CC(OCC2CCC2)c2ccncc2)CCN(C)C1 (single isomer, unassigned) [59a] | 1570
6 | CCOC(Cn1c2c(c3cc(C)ccc31)CN(C)CC2)c1ccncc1 (single isomer, unassigned) [43a] | 3570
7 | Cc1cc(Cl)c2c(c1)c1c(n2CC(C)(O)c2ccncc2)CCN2CCCC12 (single isomer, unassigned) [91b] | 1780
8 | CC(O)(Cn1c2c(c3cc(Cl)cc(F)c31)C1CCCN1CC2)c1ccncc1 (single isomer, unassigned) [52b] | 992

What follows are compounds tested against T2, Human adrenergic α2B receptor (Homo sapiens, UniProt P18089) (assay: Radioligand binding, adrenergic α2B (Protocol Group B)). Details: 10 nM compound; Protocol Group B; 0.01 µM.
T2 sequence (P18089 1-450): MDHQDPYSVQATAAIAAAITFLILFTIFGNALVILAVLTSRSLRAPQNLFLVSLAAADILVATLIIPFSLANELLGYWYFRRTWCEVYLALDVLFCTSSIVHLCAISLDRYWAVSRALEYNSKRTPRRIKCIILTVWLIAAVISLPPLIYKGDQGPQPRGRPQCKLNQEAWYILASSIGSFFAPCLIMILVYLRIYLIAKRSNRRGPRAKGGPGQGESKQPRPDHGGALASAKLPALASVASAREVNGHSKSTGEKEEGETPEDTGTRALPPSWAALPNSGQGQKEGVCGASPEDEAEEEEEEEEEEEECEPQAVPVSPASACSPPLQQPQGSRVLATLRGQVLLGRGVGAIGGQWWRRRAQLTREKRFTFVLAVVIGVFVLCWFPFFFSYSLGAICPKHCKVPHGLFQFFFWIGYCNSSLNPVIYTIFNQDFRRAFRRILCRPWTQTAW
Set-up: purchased Milipore (Millipore)
Procedure, shortened: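 Recombinant human α2B receptor membranes incubated with compounds in 50 mM Tris-HCl pH 7.4, 5 mM MgCl2, 1 mM CaCl2, 0.2% BSA, 1% DMSO vehicle. Non-specific binding defined with 10 μM rauwolscine. Values are percent inhibition of specific binding or estimated Ki.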

Row | Compound | Percentage inhibition of ligand binding, Adrenergic α2B (10 nM) [%]
9 | CCOC(Cn1c2c(c3cc(C)ccc31)CN(C)CC2)c1ccncc1 (single isomer, unassigned) [43b] | 71
10 | Cc1cc(Cl)c2c(c1)c1c(n2CC(C)(O)c2ccncc2)CCN2CCCC12 (single isomer, unassigned) [91b] | 95
11 | CC(O)(Cn1c2c(c3cc(Cl)cc(F)c31)C1CCCN1CC2)c1ccncc1 (single isomer, unassigned) [52b] | 94

Same assay, conditions: 10 nM compound; Protocol Group B; read-out: Percentage inhibition of ligand binding, Adrenergic α2B (10 nM)

Row | Compound | inhibition at 0.01 µM [%]
12 | Cc1ccc2c(c1)c1c(n2CC(OCC2CCC2)c2ccncc2)CCN2CCCC12 (single isomer, unassigned) [138a] | 91
13 | CC(O)(Cn1c2c(c3cc(F)ccc31)C1CCCN1CC2)c1ccncc1 (single isomer, unassigned) [31a] | 72
14 | Cc1ccc2c(c1)c1c(n2CC(OCC2CCC2)c2ccncc2)CCN(C)C1 (single isomer, unassigned) [59a] | 93
15 | CCOC(Cn1c2c(c3cc(C)ccc31)CN(C)CC2)c1ccncc1 (single isomer, unassigned) [43a] | 64

Same assay, conditions: 30 nM compound; Protocol Group B; 0.03 µM

Row | Compound | Percentage inhibition of ligand binding, Adrenergic α2B (30 nM) [%]
16 | CCOC(Cn1c2c(c3cc(C)ccc31)CN(C)CC2)c1ccncc1 (single isomer, unassigned) [43b] | 89
17 | Cc1cc(Cl)c2c(c1)c1c(n2CC(C)(O)c2ccncc2)CCN2CCCC12 (single isomer, unassigned) [91b] | 97
18 | CC(O)(Cn1c2c(c3cc(Cl)cc(F)c31)C1CCCN1CC2)c1ccncc1 (single isomer, unassigned) [52b] | 96

Same assay, conditions: 30 nM compound; Protocol Group B; read-out: Percentage inhibition of ligand binding, Adrenergic α2B (30 nM)

Row | Compound | inhibition at 0.03 µM [%]
19 | Cc1ccc2c(c1)c1c(n2CC(OCC2CCC2)c2ccncc2)CCN2CCCC12 (single isomer, unassigned) [138a] | 90
20 | CC(O)(Cn1c2c(c3cc(F)ccc31)C1CCCN1CC2)c1ccncc1 (single isomer, unassigned) [31a] | 90
21 | Cc1ccc2c(c1)c1c(n2CC(OCC2CCC2)c2ccncc2)CCN(C)C1 (single isomer, unassigned) [59a] | 98
22 | CCOC(Cn1c2c(c3cc(C)ccc31)CN(C)CC2)c1ccncc1 (single isomer, unassigned) [43a] | 85

Same assay, conditions: 0.1 μM compound; Protocol Group B; 0.1 µM

Row | Compound | Percentage inhibition of ligand binding, Adrenergic α2B (0.1 μM) [%]
23 | CCOC(Cn1c2c(c3cc(C)ccc31)CN(C)CC2)c1ccncc1 (single isomer, unassigned) [43b] | 98
24 | CC(O)(Cn1c2c(c3cc(Cl)cc(F)c31)C1CCCN1CC2)c1ccncc1 (single isomer, unassigned) [52b] | 99

Same assay, conditions: 0.1 μM compound; Protocol Group B; read-out: Percentage inhibition of ligand binding, Adrenergic α2B (0.1 μM)

Row | Compound | inhibition at 0.1 µM [%]
25 | CC(O)(Cn1c2c(c3cc(F)ccc31)C1CCCN1CC2)c1ccncc1 (single isomer, unassigned) [31a] | 96
26 | Cc1ccc2c(c1)c1c(n2CC(OCC2CCC2)c2ccncc2)CCN(C)C1 (single isomer, unassigned) [59a] | 100
27 | CCOC(Cn1c2c(c3cc(C)ccc31)CN(C)CC2)c1ccncc1 (single isomer, unassigned) [43a] | 96

Same assay, conditions: Protocol Group B; estimated Ki; read-out: Ki α2B

Row | Compound | Ki [nM]
28 | Cc1ccc2c(c1)c1c(n2CC(OCC2CCC2)c2ccncc2)CCN2CCCC12 (single isomer, unassigned) [138a] | 0.95
29 | CCOC(Cn1c2c(c3cc(C)ccc31)CN(C)CC2)c1ccncc1 (single isomer, unassigned) [43b] | 2.1
30 | Cc1ccc2c(c1)c1c(n2CC(OC(=O)N2CCCC2)c2ccncc2)CCN(C)C1 (single isomer, unassigned) [4b] | 3.6
31 | CC(O)(Cn1c2c(c3cc(F)ccc31)C1CCCN1CC2)c1ccncc1 (single isomer, unassigned) [31a] | 2.2
32 | Cc1ccc2c(c1)c1c(n2CC(OCC2CCC2)c2ccncc2)CCN(C)C1 (single isomer, unassigned) [59a] | 1
33 | CCOC(Cn1c2c(c3cc(C)ccc31)CN(C)CC2)c1ccncc1 (single isomer, unassigned) [43a] | 2.8
34 | Cc1cc(Cl)c2c(c1)c1c(n2CC(C)(O)c2ccncc2)CCN2CCCC12 (single isomer, unassigned) [91b] | 0.93
35 | CC(O)(Cn1c2c(c3cc(Cl)cc(F)c31)C1CCCN1CC2)c1ccncc1 (single isomer, unassigned) [52b] | 0.71

These compounds were tested against T3, Human adrenergic α1B receptor (Homo sapiens, UniProt P35368) (assay: β-Arrestin GPCR functional assay, adrenergic α1B (Protocol B)). Details: β-arrestin, antagonist vs nor-epinephrine EC80.
T3 sequence (P35368 1-520): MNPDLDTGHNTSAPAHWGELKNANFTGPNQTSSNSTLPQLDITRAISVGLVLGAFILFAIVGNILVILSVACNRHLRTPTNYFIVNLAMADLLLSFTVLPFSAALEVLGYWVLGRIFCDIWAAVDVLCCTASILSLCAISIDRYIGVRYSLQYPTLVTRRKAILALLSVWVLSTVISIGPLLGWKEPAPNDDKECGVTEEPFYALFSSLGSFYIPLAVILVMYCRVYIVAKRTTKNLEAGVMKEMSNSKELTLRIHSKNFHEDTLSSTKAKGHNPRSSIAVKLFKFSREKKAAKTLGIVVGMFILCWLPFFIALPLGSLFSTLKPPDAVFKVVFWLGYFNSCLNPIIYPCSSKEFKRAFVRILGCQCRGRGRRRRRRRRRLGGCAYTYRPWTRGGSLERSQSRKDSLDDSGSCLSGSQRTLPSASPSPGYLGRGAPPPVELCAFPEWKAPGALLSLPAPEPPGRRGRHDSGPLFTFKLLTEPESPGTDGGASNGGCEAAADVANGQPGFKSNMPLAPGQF
Format: cell-based
Protocol: To evaluate the activity of compounds in β-Arrestin GPCR functional assays, recombinant CHO cell line (DiscoveRX), over expressed with human adrenergic α1B receptor were used. The experiment was done with a kit of DiscoveRX as per recommended protocol of the supplier. Cells were harvested from culture flask using cell dissociation solution (CDS) and plated at a density of 12,000 cells/well in CP reagent (supplied with the kit) in a half area 96-well white polystyrene plate. After 24 h incubation at 37° C., compounds at various concentrations in 1% (final) DMSO were charged to the cells for 30 min at 37° C. Active nor-epinephrine (-NE) at its EC80 concentrations (50 nM) were then added to the cells and incubated for another 90 min at 37° C. Detection mix was prepared by mixing Path Hunter cell assay buffer, Emerald II solution and Galactone star solution in a ratio of 19:5:1 and incubated with the cells for 60 min at RT in the dark. The reading was taken in Envision at luminescence mode. Biochemical assay results are presented as the percent Inhibition in Table B2a, or IC50 values in Table B2b.

Row | Compound | IC50 [nM]
36 | Cc1ccc2c(c1)c1c(n2CC(OCC2CCC2)c2ccncc2)CCN2CCCC12 (single isomer, unassigned) [138a] | 72.2
37 | CCOC(Cn1c2c(c3cc(C)ccc31)CN(C)CC2)c1ccncc1 (single isomer, unassigned) [43b] | 1090
38 | Cc1ccc2c(c1)c1c(n2CC(OC(=O)N2CCCC2)c2ccncc2)CCN(C)C1 (single isomer, unassigned) [4b] | 662
39 | CC(O)(Cn1c2c(c3cc(F)ccc31)C1CCCN1CC2)c1ccncc1 (single isomer, unassigned) [31a] | 982
40 | Cc1ccc2c(c1)c1c(n2CC(OCC2CCC2)c2ccncc2)CCN(C)C1 (single isomer, unassigned) [59a] | 350
41 | CCOC(Cn1c2c(c3cc(C)ccc31)CN(C)CC2)c1ccncc1 (single isomer, unassigned) [43a] | 670
42 | Cc1cc(Cl)c2c(c1)c1c(n2CC(C)(O)c2ccncc2)CCN2CCCC12 (single isomer, unassigned) [91b] | 283
43 | CC(O)(Cn1c2c(c3cc(Cl)cc(F)c31)C1CCCN1CC2)c1ccncc1 (single isomer, unassigned) [52b] | 224
